Like-named read-outs stand apart in the source and are kept apart here.
How the values were obtained:
[1] = Solid stability test (25°C, RH 60%, 30 days); assay type: physicochemical; conditions: 25°C±2°C, relative humidity 60%±2%
Protocol: Experimental conditions: 25° C.±2° C., relative humidity 60%±2%
Experimental instrument: Agilent 1260 HPLC; chamber for stability test
Experimental method: each compound of the present disclosure was packaged (the inner packaging material was a penicillin bottle; the outer packaging material was a double-layer aluminum foil bag, and a desiccant was added inside and outside the package), placed in the chamber for stability test, at a temperature of 25° C.±2° C. and a relative humidity of 60%±2%. The degradation situation of the compounds for 30 days was examined. The contents of total impurities before and after 30 days of each compound were compared and the results were as follows: […]

[2] = Solubility test in deionized water (HPLC, external calibration); assay type: physicochemical; conditions: for solubility at 30 min: 25 °C, thermodynamic from solid
Protocol: Experimental condition: 25±2° C.
Dissolving medium: deionized water
Experimental method: 1 mg voriconazole and appropriate amount of each compound were weighed, placed in 1 ml deionized water separately, shaken vigorously for 30 s every 5 mins for 30 mins.

[3] = Pharmacokinetics after single intravenous administration in rats (plasma voriconazole); conditions: for T1/2 / AUClast: rat, in vivo, 2.5 mg/kg
Protocol: Dosage for administration: 2.5 mg/kg (calculated as voriconazole)
Dosing volume for administration: 2.5 ml/kg
Drug concentration: 1 mg/mL (calculated as voriconazole)
Route of administration: tail vein injection Experimental animals: SD rats, SPF grade, weighing 180-220 g, half male and half female; the SD rats were randomized into groups of 6 animals each, three males and three females in each group. Experimental method: Blood samples were collected at different time points after tail vein administration, and the plasma concentrations of voriconazole were measured.

[4] = system: Candida albicans ATCC10231; test: Systemic fungal infection in mice, intravenous administration, survival; assay type: in vivo; conditions: ICR mice, tail vein, 5 mg/kg (calculated as voriconazole) once daily for 5 days
Protocol: ICR mice, weighing 18-22 g, male, provided by the Hubei Experimental Animal Center.
The standard strain Candida albicans was purchased from the American Type Culture Collection, and the strain number was ATCC10231.
Before the experiment, a small amount of Candida albicans was picked from the SDA medium preserved at 4° C. by inoculation circle, and inoculated into 1 ml YPD (Yeast Extract Peptone Dextrose Medium, the same below) culture medium, under shake cultivation at 30° C., 200 rpm, activated for 16 hours to make the fungus in the late stage of the exponential growth phase. Blood cell counting plate was used to count. The concentration of the broth was adjusted to 1*10^3-5*10^3 CFU/ml with RPMI1640 (Roswell Park Memorial Institute 1640, the same below) culture medium. The Candida albicans monoclone on the SDA plate was picked and inoculated into 1 ml YPD medium, cultured at 35° C., 200 rpm for 16 hours to the late exponential growth phase, 1% of which was then inoculated in fresh medium for 6 hours, centrifuged at 1000×g for 5 mins, washed three times with saline until the supernatant was colorless, while hemocytometer was used to count. The cell concentration was adjusted to 5*10^6/ml. The tail vein injection of 0.1 ml/10 g was carried out to cause a systemic fungal infection in mice. The mice were randomized into groups of 10 each. Since voriconazole was insoluble in vehicle (physiological saline), the mice of the voriconazole group in the test were injected a commercially available voriconazole (Pfizer, product lot number Z467001), that is, sulfobutyl ether-β-cyclodextrin used as a solubilizer, while other groups used physiological saline as a solvent. After establishing a systemic fungal infection model in mice for 2 hours, each administration group was administered with 5 mg/kg (calculated as voriconazole) drug in the tail vein, with the volume for administration of 0.1 ml/10 g. The mice in the model group were administered 0.1 ml/10 g of 0.9% sodium chloride solution, once daily, for 5 consecutive days. The death situation of the mice was inspected and the survival time was recorded. After a total of 7 days of observation, all dead mice were treated with fire using ethanol.

Row | SMILES | Content increase of total impurity (25° C., placed for 30 days) [1] [%] | Solubility ([2]; deionized water, 25±2°C) [mg/mL] | T1/2 [3] | other results
1 | CC(OC(=O)OCCS)[n+]1cnn(C[C@](O)(c2ccc(F)cc2F)[C@@H](C)c2ncncc2F)c1 (some centres unmarked) [Compound 16031] | 0.97 |  |  | 
2 | CC(OC(=O)N(C)c1ncccc1COC(=O)C[C@H](N)C(=O)O)[n+]1cnn(C[C@](O)(c2ccc(F)cc2F)[C@@H](C)c2ncncc2F)c1.[Cl-] (some centres unmarked) [QR16003] | 1.37 | >50 | similar | 
3 | CC(OC(=O)N(C)c1ncccc1COC(=O)CCC(=O)[O-])[n+]1cnn(C[C@](O)(c2ccc(F)cc2F)[C@@H](C)c2ncncc2F)c1.[Cl-].[Na+] (some centres unmarked) [QR16004] |  | >50 |  | AUClast [3]: 9.586 ± 2.352 µg·h/mL; survival rate of mice, day 1 ([4]; day 1): 100%; survival rate of mice, day 2 ([4]; day 2): 100%; survival rate of mice, day 3 ([4]; day 3): 100%; survival rate of mice, day 4 ([4]; day 4): 90%; survival rate of mice, day 5 ([4]; day 5): 90%; survival rate of mice, day 6 ([4]; day 6): 80%
4 | CC(OC(=O)N(C)c1ncccc1COC(=O)[C@@H](N)CCCN)[n+]1cnn(C[C@](O)(c2ccc(F)cc2F)[C@@H](C)c2ncncc2F)c1.Cl.Cl.Cl.[I-] (some centres unmarked) [QR16006] | 1.14 | >50 |  | 
5 | CC(OC(=O)N(C)c1ncccc1COC(=O)[C@@H](N)CCCN)[n+]1cnn(C[C@](O)(c2ccc(F)cc2F)[C@@H](C)c2ncncc2F)c1.O=P([O-])(O)O (some centres unmarked) [QR16011] | 0.96 | >50 |  | 
6 | CC(OC(=O)N(C)c1ncccc1COC(=O)[C@@H](N)CCCN)[n+]1cnn(C[C@](O)(c2ccc(F)cc2F)[C@@H](C)c2ncncc2F)c1.O=[N+]([O-])[O-] (some centres unmarked) [QR16012] | 0.92 | >50 |  | 
7 | CC(OC(=O)N(C)c1ncccc1COC(=O)C(N)Cc1ccc(O)cc1)[n+]1cnn(CC(O)(c2ccc(F)cc2F)C(C)c2ncncc2F)c1.Cl.Cl.[Cl-] (centres unmarked) [QR16018] | 1.15 | >50 |  | 
8 | CNCCC[C@H](N)C(=O)OCc1cccnc1N(C)C(=O)OC(C)[n+]1cnn(C[C@](O)(c2ccc(F)cc2F)[C@@H](C)c2ncncc2F)c1.[Cl-] (some centres unmarked) [QR16019] | 0.88 | >50 |  | 
9 | CNCC[C@H](N)C(=O)OCc1cccnc1N(C)C(=O)OC(C)[n+]1cnn(C[C@](O)(c2ccc(F)cc2F)[C@@H](C)c2ncncc2F)c1 (some centres unmarked) [QR16021] | 1.14 |  |  | solubility at 30 min ([2]; deionized water, 25±2°C): > 50 mg/mL; AUClast ([3]; both, SD, iv): 7.056 ± 2.532 µg·h/mL
10 | CC(OC(=O)OCCCCOP(=O)(O)O)[n+]1cnn(C[C@](O)(c2ccc(F)cc2F)[C@@H](C)c2ncncc2F)c1 (some centres unmarked) [QR16024] | 2.84 | >50 | similar | 
11 | CC(OC(=O)OCCCCCOP(=O)(O)O)[n+]1cnn(C[C@](O)(c2ccc(F)cc2F)[C@@H](C)c2ncncc2F)c1 (some centres unmarked) [QR16025] | 1.57 | >50 | similar | 
12 | CC(OC(=O)OCCOCCOCCOP(=O)(O)O)[n+]1cnn(C[C@](O)(c2ccc(F)cc2F)[C@@H](C)c2ncncc2F)c1 (some centres unmarked) [QR16033] |  | >50 | similar | 
13 | CC(OC(=O)SC[C@H](N)C(=O)O)[n+]1cnn(C[C@](O)(c2ccc(F)cc2F)[C@@H](C)c2ncncc2F)c1 (some centres unmarked) [QR16034] |  |  | similar | Solubility [2]: 12.5 mg/mL
14 | CC(OC(=O)NCC(=O)O)[n+]1cnn(C[C@](O)(c2ccc(F)cc2F)[C@@H](C)c2ncncc2F)c1 (some centres unmarked) [QR16038] |  |  | similar | 
15 | CC(OC(=O)NCC[C@H](N)C(=O)O)[n+]1cnn(C[C@](O)(c2ccc(F)cc2F)[C@@H](C)c2ncncc2F)c1.Cl.[Cl-] (some centres unmarked) [QR16039] | 1.22 |  | similar | 
16 | C[C@@H](c1ncncc1F)[C@](O)(Cn1c[n+](CC(=O)O)cn1)c1ccc(F)cc1F [QR16043] |  |  | similar | 
17 | CC(OC(=O)OCCOP(=O)(O)O)[n+]1cnn(C[C@](O)(c2ccc(F)cc2F)[C@@H](C)c2ncncc2F)c1 (some centres unmarked) [QR16046] | 0.79 |  |  | solubility at 30 min ([2]; deionized water, 25±2°C): > 50 mg/mL
18 | CC(OC(=O)N(C)c1ncccc1COC(=O)CN)[n+]1cnn(C[C@](O)(c2ccc(F)cc2F)[C@@H](C)c2ncncc2F)c1.O=S(=O)([O-])O (some centres unmarked) [SF16001] | 0.37 | >50 |  | 
19 | CC(OC(=O)N(C)c1ncccc1COC(=O)[C@@H](N)CCCN)[n+]1cnn(C[C@](O)(c2ccc(F)cc2F)[C@@H](C)c2ncncc2F)c1 (some centres unmarked) [SF16002] | 0.67 |  |  | solubility at 30 min ([2]; deionized water, 25±2°C): > 50 mg/mL
20 | CC(OC(=O)N(C)c1ncccc1COC(=O)[C@@H](N)CCC(N)=O)[n+]1cnn(C[C@](O)(c2ccc(F)cc2F)[C@@H](C)c2ncncc2F)c1.O=S(=O)([O-])O (some centres unmarked) [SF16013] | 0.48 |  |  | 
21 | CC(OC(=O)N(C)c1ncccc1COC(=O)[C@@H](N)CC(N)=O)[n+]1cnn(C[C@](O)(c2ccc(F)cc2F)[C@@H](C)c2ncncc2F)c1.O=S(=O)([O-])O (some centres unmarked) [SF16014] | 0.36 |  |  | 
22 | CC(OC(=O)N(C)c1ncccc1COC(=O)[C@@H](N)CO)[n+]1cnn(C[C@](O)(c2ccc(F)cc2F)[C@@H](C)c2ncncc2F)c1.O=S(=O)([O-])O (some centres unmarked) [SF16015] | 0.32 |  |  | 
23 | CC(OC(=O)N(C)c1ncccc1COC(=O)[C@@H](N)[C@@H](C)O)[n+]1cnn(C[C@](O)(c2ccc(F)cc2F)[C@@H](C)c2ncncc2F)c1.O=S(=O)([O-])O (some centres unmarked) [SF16016] | 0.49 |  |  | 
24 | CC(OC(=O)N(C)c1ncccc1COC(=O)[C@@H](N)CCCCN)[n+]1cnn(C[C@](O)(c2ccc(F)cc2F)[C@@H](C)c2ncncc2F)c1 (some centres unmarked) [SF16017] | 0.46 |  |  | 
25 | CNCC(=O)OCc1cccnc1N(C)C(=O)OC(C)[n+]1cnn(C[C@](O)(c2ccc(F)cc2F)[C@@H](C)c2ncncc2F)c1.O=S(=O)([O-])O (some centres unmarked) [SF16020] | 0.62 |  |  | 
26 | C[C@@H](c1ncncc1F)[C@](O)(Cn1cncn1)c1ccc(F)cc1F [Voriconazole, reference compound] |  |  |  | solubility at 30 min ([2]; deionized water, 25±2°C): < 1 mg/mL; plasma concentration of voriconazole ([3]; control group of voriconazole dissolved in physiological saline, tail vein injection, SD rats): not detected
